For 4 compounds, IC50 results are on record in BindingDB's records for doi:10.1016/j.chembiol.2008.07.015 (Duke University Medical Center, 2008).

Holding throughout (test): BP Incorporation Assay
What all share (details): 37 °C

Experiment [1] concerns the target T1, Protein-glutamine gamma-glutamyltransferase 2 (Homo sapiens, UniProt P21980).
T1 sequence (P21980 whole entry): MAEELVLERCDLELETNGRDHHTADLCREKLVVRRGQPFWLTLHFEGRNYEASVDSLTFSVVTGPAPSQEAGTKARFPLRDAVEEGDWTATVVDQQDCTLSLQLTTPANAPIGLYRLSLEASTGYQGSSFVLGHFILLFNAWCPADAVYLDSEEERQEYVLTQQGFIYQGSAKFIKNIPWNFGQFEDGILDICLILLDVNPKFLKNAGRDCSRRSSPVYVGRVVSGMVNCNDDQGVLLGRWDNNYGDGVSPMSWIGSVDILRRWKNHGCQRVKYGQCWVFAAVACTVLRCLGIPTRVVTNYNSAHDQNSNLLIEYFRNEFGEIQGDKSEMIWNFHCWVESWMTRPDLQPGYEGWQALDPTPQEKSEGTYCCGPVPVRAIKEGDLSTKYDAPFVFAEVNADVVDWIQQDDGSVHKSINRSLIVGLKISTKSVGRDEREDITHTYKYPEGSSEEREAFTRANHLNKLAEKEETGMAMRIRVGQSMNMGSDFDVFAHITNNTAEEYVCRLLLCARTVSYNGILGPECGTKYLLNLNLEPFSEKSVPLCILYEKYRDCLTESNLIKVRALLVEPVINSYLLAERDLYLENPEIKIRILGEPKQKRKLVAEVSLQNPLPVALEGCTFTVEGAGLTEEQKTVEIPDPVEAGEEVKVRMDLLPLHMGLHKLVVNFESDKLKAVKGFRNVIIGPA
Here is the method: (§1) In order to eliminated fluorescence interference, chemicals were subjected to a secondary screening using colorimetric BP incorporation assay. TGase/TGMS activity was determined by quantifying the incorporation of BP into N,N'-dimethylcasein in a microtiter plate.

Experiment [2] concerns the target Protein kinase C alpha type/glutamine gamma-glutamyltransferase 2 (Homo sapiens, UniProt P17252+P21980). Here is the method:
as §1

The target in experiment [3] is Protein-glutamine gamma-glutamyltransferase 2/Receptor protein-tyrosine kinase (Homo sapiens, UniProt P21980+Q504U8). Here is the method:
as §1

Chain of Protein-glutamine gamma-glutamyltransferase 2/Receptor protein-tyrosine kinase (Q504U8 whole entry, one chain of several): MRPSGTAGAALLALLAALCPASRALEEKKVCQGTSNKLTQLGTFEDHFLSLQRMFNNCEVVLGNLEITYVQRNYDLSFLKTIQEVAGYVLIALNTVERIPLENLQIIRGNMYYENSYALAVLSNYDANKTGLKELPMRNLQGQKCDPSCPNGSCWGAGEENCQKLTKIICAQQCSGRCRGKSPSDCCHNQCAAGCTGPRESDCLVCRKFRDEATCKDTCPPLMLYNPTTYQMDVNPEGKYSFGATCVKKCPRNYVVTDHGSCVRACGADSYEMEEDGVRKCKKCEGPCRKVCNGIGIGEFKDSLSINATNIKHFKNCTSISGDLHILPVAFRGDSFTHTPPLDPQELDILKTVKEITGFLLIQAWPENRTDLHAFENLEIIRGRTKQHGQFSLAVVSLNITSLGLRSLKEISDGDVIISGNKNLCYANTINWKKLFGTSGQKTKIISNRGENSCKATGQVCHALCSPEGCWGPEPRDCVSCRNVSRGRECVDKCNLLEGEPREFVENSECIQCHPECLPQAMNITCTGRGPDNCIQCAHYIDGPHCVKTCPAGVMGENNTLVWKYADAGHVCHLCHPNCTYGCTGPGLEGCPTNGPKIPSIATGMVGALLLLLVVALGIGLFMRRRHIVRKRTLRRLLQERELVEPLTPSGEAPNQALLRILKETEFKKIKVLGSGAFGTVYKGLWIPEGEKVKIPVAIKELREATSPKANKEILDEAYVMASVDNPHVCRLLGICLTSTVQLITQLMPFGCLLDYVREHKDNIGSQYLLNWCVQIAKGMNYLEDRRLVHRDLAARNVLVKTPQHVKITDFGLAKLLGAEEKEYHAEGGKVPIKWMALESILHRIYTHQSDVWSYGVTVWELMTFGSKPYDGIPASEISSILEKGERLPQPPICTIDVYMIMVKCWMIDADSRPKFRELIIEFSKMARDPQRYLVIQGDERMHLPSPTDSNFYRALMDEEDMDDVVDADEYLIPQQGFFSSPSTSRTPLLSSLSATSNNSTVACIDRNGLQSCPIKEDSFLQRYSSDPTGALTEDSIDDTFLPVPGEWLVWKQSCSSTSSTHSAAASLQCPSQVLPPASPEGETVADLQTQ

Regarding `CC1=CC(=O)c2ccccc2C1=O` [Vitamin K3], in experiment [1], the IC50 was found to be 2.2 µM. Take `CC(=O)c1c(O)c(C)c(O)c(Cc2c(O)c3c(c(C(=O)C=Cc4ccccc4)c2O)OC(C)(C)C=C3)c1O` [(E)-1-(6-(3-acetyl-2,4,6-trihydroxy-5-methylbenzyl)-5,7-dihydroxy-2,2-dimethyl-2H-chromen-8-yl)-3-phenylprop-2-en-1-one]: the IC50 in experiment [2] was found to be 20 µM. Turning to `O=C1Nc2ccc(I)cc2/C1=C/c1cc(Br)c(O)c(Br)c1` [G6416 (GW5074)], half-maximal inhibition in experiment [2] (IC50) required 15 µM. For the compound `N#C/C(=C\c1ccc(O)c(O)c1)C(N)=S` [alpha-Cyano-(3,4-dihydroxy)thiocinnamide], in experiment [3], the IC50 was determined as 3 µM.

In general, IC50 refers to the concentration needed to halve the response being measured. Read a high IC50 as a need for much substance.
